Target: T1, BA/F3-FLT3-ITD + D835Y cells (Homo sapiens, UniProt P36888, D835Y, cells depend on it, form not given)
T1 sequence (P36888 1-993 D835Y): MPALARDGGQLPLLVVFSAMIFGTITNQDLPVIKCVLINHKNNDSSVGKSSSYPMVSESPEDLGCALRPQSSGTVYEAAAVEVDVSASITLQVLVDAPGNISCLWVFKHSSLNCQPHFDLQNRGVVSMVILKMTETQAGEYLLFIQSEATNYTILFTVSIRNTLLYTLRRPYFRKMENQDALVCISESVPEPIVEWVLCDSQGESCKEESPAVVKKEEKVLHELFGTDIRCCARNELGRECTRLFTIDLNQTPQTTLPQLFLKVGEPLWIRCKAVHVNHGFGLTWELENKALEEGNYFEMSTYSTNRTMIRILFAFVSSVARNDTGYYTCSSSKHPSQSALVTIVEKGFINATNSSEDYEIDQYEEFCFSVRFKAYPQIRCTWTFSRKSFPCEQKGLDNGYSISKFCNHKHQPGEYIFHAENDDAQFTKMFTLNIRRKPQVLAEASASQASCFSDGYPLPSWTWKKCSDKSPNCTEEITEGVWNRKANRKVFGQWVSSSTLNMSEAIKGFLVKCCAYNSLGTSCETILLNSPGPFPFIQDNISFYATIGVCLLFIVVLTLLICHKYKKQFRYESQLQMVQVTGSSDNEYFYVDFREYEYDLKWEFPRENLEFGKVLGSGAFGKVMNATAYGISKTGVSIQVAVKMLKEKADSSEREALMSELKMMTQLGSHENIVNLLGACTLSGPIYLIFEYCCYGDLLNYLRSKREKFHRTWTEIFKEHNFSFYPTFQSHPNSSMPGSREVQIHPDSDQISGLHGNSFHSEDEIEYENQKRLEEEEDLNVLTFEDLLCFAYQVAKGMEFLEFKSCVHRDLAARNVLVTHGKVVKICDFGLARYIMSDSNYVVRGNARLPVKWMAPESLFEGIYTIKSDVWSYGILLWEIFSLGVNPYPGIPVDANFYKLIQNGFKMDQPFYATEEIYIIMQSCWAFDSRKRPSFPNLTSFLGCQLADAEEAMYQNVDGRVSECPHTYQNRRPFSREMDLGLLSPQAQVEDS
Assay: Cell proliferation assay (CellTiter-Glo), engineered BA/F3 cells
Format: cell-based, murine
Details: BaF3 FLT3 ITD/D835Y cells, 3d-Growth; read-out: BaF3_FLT3 ITD/D835Y 3d-Growth: IC50
Outline: (§1)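 MOLM-14 AML cells (endogenous FLT3 ITD, AC220-selected D835Y or F691L variants) or murine Ba/F3 expressing full-length FLT3 ITD/D835Y, without IL-3 for FLT3 dependence, 1×10^4 cells/well. Eight-point 1:3 series from 1 μM final, 0.2% DMSO, 3 days at 37 °C. CellTiter-Glo luminescence (ATP) gave IC50.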

GI50, 0.0001 to 10 µM:
CNC1CCN(C(=O)c2n[nH]c3ccc(-c4cnc5[nH]c(-c6ccccc6)cc5c4)cc23)C1 (stereo not shown) [Compound P-0028, [3-(methylamino)pyrrolidin-1-yl]-[5-(2-phenyl-1H-pyrrolo[2,3-b]pyridin-5-yl)-1H-indazol-3-yl]methanone]
CC1CCN(C(=O)c2n[nH]c3ccc(-c4cnc5[nH]c(-c6ccccc6)cc5c4)cc23)CC1 [Compound P-0027, (4-methyl-1-piperidyl)-[5-(2-phenyl-1H-pyrrolo[2,3-b]pyridin-5-yl)-1H-indazol-3-yl]methanone]
O=C(c1cccc(-c2cnc3[nH]c(-c4ccccc4)cc3c2)n1)N1CCC(CO)CC1 [Compound P-0023, [4-(hydroxymethyl)-1-piperidyl]-[6-(2-phenyl-1H-pyrrolo[2,3-b]pyridin-5-yl)-2-pyridyl]methanone]
C#Cc1cc2cc(-c3cccc(S(=O)(=O)NC4CC4)c3)cnc2[nH]1 [Compound P-0004, N-cyclopropyl-3-(2-ethynyl-1H-pyrrolo[2,3-b]pyridin-5-yl)benzenesulfonamide]
CN(C)C1CCN(C(=O)c2cccc(-c3cnc4[nH]c(-c5ccccc5)cc4c3)n2)C1 (stereo not shown) [Compound P-0104, [3-(dimethylamino)pyrrolidin-1-yl]-[6-(2-phenyl-1H-pyrrolo[2,3-b]pyridin-5-yl)-2-pyridyl]methanone]
NC(=O)Nc1ccc(-c2cnc3[nH]c(-c4ccccc4)cc3c2)cc1 [Compound P-0005, [4-(2-phenyl-1H-pyrrolo[2,3-b]pyridin-5-yl)phenyl]urea]
NCC1CCN(C(=O)c2cccc(-c3cnc4[nH]c(-c5ccccc5)cc4c3)n2)CC1 [Compound P-0026, [4-(aminomethyl)-1-piperidyl]-[6-(2-phenyl-1H-pyrrolo[2,3-b]pyridin-5-yl)-2-pyridyl]methanone]
CNC(=O)Nc1ccc(-c2cnc3[nH]c(-c4ccccc4)cc3c2)cc1 [Compound P-0006, 1-methyl-3-[4-(2-phenyl-1H-pyrrolo[2,3-b]pyridin-5-yl)phenyl]urea]
CONC(=O)c1cccc(-c2cnc3[nH]c(-c4ccccc4)cc3c2)c1 [Compound P-0003, N-methoxy-3-(2-phenyl-1H-pyrrolo[2,3-b]pyridin-5-yl)benzamide]

Tested on: MOLM-14 D835Y cells, FLT3 ITD and FLT3 D835Y
Assay: Cell proliferation assay (CellTiter-Glo), MOLM-14 D835Y
Format: cell-based
Details: Homo sapiens, 72 h, 3d-Growth, GMean
Outline: as §1

IC50, 0.0001 to 10 µM:
CC(C)(C#N)NC(=O)c1cccc(-c2cnc3[nH]c(-c4ccc(C(F)(F)F)nc4)cc3c2)n1 [Compound P-0201, N-(1-cyano-1-methyl-ethyl)-6-[2-[6-(trifluoromethyl)-3-pyridyl]-1H-pyrrolo[2,3-b]pyridin-5-yl]pyridine-2-carboxamide]
Cc1nn(C(C)C)cc1-c1[nH]c2ncc(-c3cccc(C(=O)NC(C)(C)C#N)n3)cc2c1Cl [Compound P-0192]
COc1ncc(-c2cc3cc(-c4cccc(C(=O)NC(C)(C)C#N)n4)cnc3[nH]2)cn1 [Compound P-0196, N-(1-cyano-1-methyl-ethyl)-6-[2-(2-methoxypyrimidin-5-yl)-1H-pyrrolo[2,3-b]pyridin-5-yl]pyridine-2-carboxamide]
CC(C)(C#N)NC(=O)c1cccc(-c2cnc3[nH]c(-c4cccc(N5CCCS5(=O)=O)c4)cc3c2)n1 [Compound P-0199, N-(1-cyano-1-methyl-ethyl)-6-[2-[3-(1,1-dioxo-1,2-thiazolidin-2-yl)phenyl]-1H-pyrrolo[2,3-b]pyridin-5-yl]pyridine-2-carboxamide]
CC(C)(C#N)NC(=O)c1cccc(-c2cnc3[nH]c(-c4cnc(N5CCOCC5)nc4)cc3c2)n1 [Compound P-0198, N-(1-cyano-1-methyl-ethyl)-6-[2-(2-morpholinopyrimidin-5-yl)-1H-pyrrolo[2,3-b]pyridin-5-yl]pyridine-2-carboxamide]
CC(C)(C#N)NC(=O)c1cccc(-c2cnc3[nH]c(-c4cncnc4)cc3c2)n1 [Compound P-0195, N-(1-cyano-1-methyl-ethyl)-6-(2-pyrimidin-5-yl-1H-pyrrolo[2,3-b]pyridin-5-yl)pyridine-2-carboxamide]
CC(C)(C#N)NC(=O)c1cccc(-c2cnc3[nH]c(-c4cnc(C(F)(F)F)nc4)cc3c2)n1 [Compound P-0204, N-(1-cyano-1-methyl-ethyl)-6-[2-[2-(trifluoromethyl)pyrimidin-5-yl]-1H-pyrrolo[2,3-b]pyridin-5-yl]pyridine-2-carboxamide]
CC(C)(C#N)NC(=O)c1cccc(-c2cnc3[nH]c(-c4cnn(CC(F)(F)F)c4)cc3c2)n1 [Compound P-0193, N-(1-cyano-1-methyl-ethyl)-6-[2-[1-(2,2,2-trifluoroethyl)pyrazol-4-yl]-1H-pyrrolo[2,3-b]pyridin-5-yl]pyridine-2-carboxamide]
CC(C)Oc1ncc(-c2cc3cc(-c4cccc(C(=O)NC(C)(C)C#N)n4)cnc3[nH]2)cn1 [Compound P-0191, N-(1-cyano-1-methyl-ethyl)-6-[2-(2-isopropoxypyrimidin-5-yl)-1H-pyrrolo[2,3-b]pyridin-5-yl]pyridine-2-carboxamide]
CC(C)(C#N)NC(=O)c1cccc(-c2cnc3[nH]c(-c4cnc(N5CCCC5)nc4)cc3c2)n1 [Compound P-0202, N-(1-cyano-1-methyl-ethyl)-6-[2-(2-pyrrolidin-1-ylpyrimidin-5-yl)-1H-pyrrolo[2,3-b]pyridin-5-yl]pyridine-2-carboxamide]
CC(C)(C#N)NC(=O)c1cccc(-c2cnc3[nH]c(-c4cnc(C(C)(C)O)nc4)cc3c2)n1 [Compound P-0211, N-(1-cyano-1-methyl-ethyl)-6-[2-[2-(1-hydroxy-1-methyl-ethyl)pyrimidin-5-yl]-1H-pyrrolo[2,3-b]pyridin-5-yl]pyridine-2-carboxamide]
CCCOc1ncc(-c2cc3cc(-c4cccc(C(=O)NC(C)(C)C#N)n4)cnc3[nH]2)cn1 [Compound P-0206, N-(1-cyano-1-methyl-ethyl)-6-[2-(2-propoxypyrimidin-5-yl)-1H-pyrrolo[2,3-b]pyridin-5-yl]pyridine-2-carboxamide]
CC(C)(NC(=O)c1cccc(-c2cnc3[nH]c(-c4cnn(C5CCNCC5)c4)cc3c2)n1)C(N)=O [Compound P-0200, N-(2-amino-1,1-dimethyl-2-oxo-ethyl)-6-[2-[1-(4-piperidyl)pyrazol-4-yl]-1H-pyrrolo[2,3-b]pyridin-5-yl]pyridine-2-carboxamide]
CC(C)(C#N)NC(=O)c1cccc(-c2cnc3[nH]c(-c4ccc(C5(C#N)CC5)cc4)cc3c2)n1 [Compound P-0194, 6-[2-[4-(1-cyanocyclopropyl)phenyl]-1H-pyrrolo[2,3-b]pyridin-5-yl]-N-(1-cyano-1-methyl-ethyl)pyridine-2-carboxamide]
CCc1ncc(-c2cc3cc(-c4cccc(C(=O)NC(C)(C)C#N)n4)cnc3[nH]2)cn1 [Compound P-0205, N-(1-cyano-1-methyl-ethyl)-6-[2-(2-ethylpyrimidin-5-yl)-1H-pyrrolo[2,3-b]pyridin-5-yl]pyridine-2-carboxamide]
CC(C)(C#N)NC(=O)c1cccc(-c2cnc3[nH]c(-c4ccc(N5CCOCC5)nc4)cc3c2)n1 [Compound P-0197, N-(1-cyano-1-methyl-ethyl)-6-[2-(6-morpholino-3-pyridyl)-1H-pyrrolo[2,3-b]pyridin-5-yl]pyridine-2-carboxamide]
CC(C)Oc1ccc(-c2cc3cc(-c4cccc(C(=O)NC(C)(C)C#N)n4)cnc3[nH]2)cn1 [Compound P-0190, N-(1-cyano-1-methyl-ethyl)-6-[2-(6-isopropoxy-3-pyridyl)-1H-pyrrolo[2,3-b]pyridin-5-yl]pyridine-2-carboxamide]
CC(C)(C#N)NC(=O)c1cccc(-c2cnc3[nH]c(-c4ccc(F)nc4)cc3c2)n1 [Compound P-0208, N-(1-cyano-1-methyl-ethyl)-6-[2-(6-fluoro-3-pyridyl)-1H-pyrrolo[2,3-b]pyridin-5-yl]pyridine-2-carboxamide]
CCOc1ncc(-c2cc3cc(-c4cccc(C(=O)NC(C)(C)C#N)n4)cnc3[nH]2)cn1 [Compound P-0203, N-(1-cyano-1-methyl-ethyl)-6-[2-(2-ethoxypyrimidin-5-yl)-1H-pyrrolo[2,3-b]pyridin-5-yl]pyridine-2-carboxamide]

Source: patent US9938273B2 (Plexxikon Inc., priority 2015, dated 2018)
